{"source": "patent US20240254082A1", "about": "“Substituted Isoindoline-1, 3-diketone PDE4 Inhibitor and Pharmaceutical Application Thereof” (SUZHOU INTRAGRAND PHARMA CO., LTD, priority 2021, published 2024)", "key": {"[1]": {"molecular_target": "PDE4D3 (Homo sapiens, UniProt Q08499)", "assay": "Inhibition assay of PDE4D3 enzyme (TR-FRET kit)", "assay_type": "biochemical", "procedure": "2. Inhibition assay of PDE4D3 enzyme:\n(§1) Materials and Instruments:\nFAM substrate: A stock solution of 20 μM FAM substrate was diluted to 200 nM with PDE assay buffer. 12.5 μL of the diluted substrate was added to each reaction well.\n(§2) 5 μL of the compound stock solution was added to 45 μL of DMSO to prepare a 1 mM diluent. 5 μL of the 1 mM diluent was added to 45 μL of PDE assay buffer to prepare a gradient dilution starting point. Then, according to the method of adding 5 μL of the previous concentration solution to 15 μL of PDE assay buffer, gradient dilution was carried out for 9 times to prepare compound working solutions with 10 concentrations. The working solutions were added to compound wells at 2.5 μL/well.\nPDE4D3: 0.054 μL of a PDE4D3 recombinase stock solution was added to 1500 μL of PDE buffer, and the mixture was added to all compound wells and positive control wells at 10 μL/well. 10 μL of PDE assay buffer was added to substrate control wells.\nBinding solution: 3750 μL of binding buffer A and 3750 μL of binding buffer B were mixed well. Then, 150 μL of a binder was added into the mixture and mixed well. 7.5 μL of a Tb donor was added and mixed well. The obtained mixture was added to all wells at 50 μL/well.\nS520=Read value of sample 520 nm\nS490=Read value of sample 490 nm\nTb520=Read value of Tb only 520 nm\nTb490=Read value of Tb only 490 nm\nFRETp=Positive control FRET\nFRETsub=Substrate control FRET."}, "[2]": {"molecular_target": "T1, PDE4A1 (Homo sapiens, UniProt P27815)", "T1 construct": "purchased BPS 60340", "assay": "Inhibition assay of PDE4A1 enzyme (FP kit)", "assay_type": "biochemical", "procedure": "3. Inhibition assay of PDE4A1 enzyme:\nas §1\n(§3) FAM substrate: 25 μL of a FAM substrate stock solution was added into 2500 μL of PDE assay buffer. 25 μL of the diluted substrate was added to each reaction well.\nas §2, with “5” for “2.5”\n(§4) PDE4A1: First, a PDE4A1 stock solution was diluted by 100 times to a concentration of 4.9 ng/μL, 1.8 μL of the diluent was added to 2200 μL of PDE assay buffer, and the mixture was added to all compound wells and positive control wells at 20 μL/well. 20 μL of PDE assay buffer was added to substrate control wells.\nBinding solution: 95 μL of binding buffer was added into 9.5 mL of binder diluent, and then mixed well. The obtained mixture was added to all wells at 100 μL/well.\n(§5) FPsub=Substrate control FP."}, "[3]": {"molecular_target": "T2, PDE4B2 (Homo sapiens, UniProt Q07343)", "T2 construct": "purchased BPS 60343", "T2 sequence (Q07343 1-564 isoform Q07343-2)": "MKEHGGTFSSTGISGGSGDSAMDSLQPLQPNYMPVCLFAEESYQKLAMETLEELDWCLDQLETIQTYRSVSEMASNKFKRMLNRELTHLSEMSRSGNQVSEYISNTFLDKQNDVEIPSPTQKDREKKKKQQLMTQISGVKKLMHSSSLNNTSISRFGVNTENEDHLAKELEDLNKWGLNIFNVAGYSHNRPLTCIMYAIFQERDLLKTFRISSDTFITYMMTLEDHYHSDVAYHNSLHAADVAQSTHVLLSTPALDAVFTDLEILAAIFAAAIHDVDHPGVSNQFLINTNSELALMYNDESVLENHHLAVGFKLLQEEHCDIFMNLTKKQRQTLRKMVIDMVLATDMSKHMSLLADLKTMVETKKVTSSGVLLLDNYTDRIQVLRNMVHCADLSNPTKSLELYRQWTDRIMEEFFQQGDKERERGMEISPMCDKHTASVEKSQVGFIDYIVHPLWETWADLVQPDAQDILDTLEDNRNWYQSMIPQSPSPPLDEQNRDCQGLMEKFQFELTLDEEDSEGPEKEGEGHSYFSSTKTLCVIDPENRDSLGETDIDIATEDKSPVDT", "assay": "Inhibition assay of PDE4B2 enzyme (FP kit)", "assay_type": "biochemical", "procedure": "4. Inhibition assay of PDE4B2 enzyme:\nas §1, §3\nas §2, with “5” for “2.5”\nas §4, with “PDE4B2:” for “PDE4A1:”, “PDE4B2” for “PDE4A1”, “5.2” for “4.9”, “3.2” for “1.8”\nBinding solution: 95 μL of binder was added into 9.5 mL of binder diluent, and then mixed well. The obtained mixture was added to all wells at 100 μL/well.\nas §5"}, "[4]": {"molecular_target": "T3, PDE4C1 (Homo sapiens, UniProt Q08493)", "T3 construct": "purchased BPS 60384", "assay": "Inhibition assay of PDE4C1 enzyme (FP kit)", "assay_type": "biochemical", "procedure": "5. Inhibition assay of PDE4C1 enzyme:\nas §1\nFAM substrate: 12.5 μL of a FAM substrate stock solution was added into 1250 μL of PDE assay buffer. 12.5 μL of the diluted substrate was added to each reaction well.\nas §2\nas §4, with “PDE4C1:” for “PDE4A1:”, “PDE4C1” for “PDE4A1”, “3.2” for “4.9”, “13.75” for “1.8”, “1100” for “2200”, “10” for “20”\nBinding solution: 50 μL of binder was added into 5 mL of binder diluent, and then mixed well. The obtained mixture was added to all wells at 50 μL/well.\nas §5"}, "[5]": {"molecular_target": "PDE1C (Homo sapiens, UniProt Q14123)", "sequence (Q14123 whole entry, species assumed)": "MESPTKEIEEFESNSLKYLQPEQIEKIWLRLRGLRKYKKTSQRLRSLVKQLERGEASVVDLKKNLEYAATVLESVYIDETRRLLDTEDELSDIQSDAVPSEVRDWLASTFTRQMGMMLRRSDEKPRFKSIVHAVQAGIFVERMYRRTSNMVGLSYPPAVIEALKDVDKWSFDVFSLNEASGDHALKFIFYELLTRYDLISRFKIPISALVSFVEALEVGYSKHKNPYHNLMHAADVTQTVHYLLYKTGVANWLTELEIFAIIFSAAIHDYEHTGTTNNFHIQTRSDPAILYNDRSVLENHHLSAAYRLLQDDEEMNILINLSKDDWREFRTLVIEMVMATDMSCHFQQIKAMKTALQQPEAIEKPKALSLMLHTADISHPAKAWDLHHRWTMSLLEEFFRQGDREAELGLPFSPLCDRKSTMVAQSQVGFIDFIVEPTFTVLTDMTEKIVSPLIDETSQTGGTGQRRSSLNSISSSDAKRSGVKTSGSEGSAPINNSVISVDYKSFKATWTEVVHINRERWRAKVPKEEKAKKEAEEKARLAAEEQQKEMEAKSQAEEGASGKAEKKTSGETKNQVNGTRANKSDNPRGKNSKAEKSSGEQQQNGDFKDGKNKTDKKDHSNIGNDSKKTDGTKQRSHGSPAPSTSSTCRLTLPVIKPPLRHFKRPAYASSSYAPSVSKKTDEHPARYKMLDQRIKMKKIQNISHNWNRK", "assay": "Selective inhibitory activity assay, PDE1C", "assay_type": "biochemical", "settings": "read-out: Inhibition rate (%) of PDE1C"}, "[6]": {"molecular_target": "PDE2A (Homo sapiens, UniProt O00408)", "sequence (O00408 whole entry, species assumed)": "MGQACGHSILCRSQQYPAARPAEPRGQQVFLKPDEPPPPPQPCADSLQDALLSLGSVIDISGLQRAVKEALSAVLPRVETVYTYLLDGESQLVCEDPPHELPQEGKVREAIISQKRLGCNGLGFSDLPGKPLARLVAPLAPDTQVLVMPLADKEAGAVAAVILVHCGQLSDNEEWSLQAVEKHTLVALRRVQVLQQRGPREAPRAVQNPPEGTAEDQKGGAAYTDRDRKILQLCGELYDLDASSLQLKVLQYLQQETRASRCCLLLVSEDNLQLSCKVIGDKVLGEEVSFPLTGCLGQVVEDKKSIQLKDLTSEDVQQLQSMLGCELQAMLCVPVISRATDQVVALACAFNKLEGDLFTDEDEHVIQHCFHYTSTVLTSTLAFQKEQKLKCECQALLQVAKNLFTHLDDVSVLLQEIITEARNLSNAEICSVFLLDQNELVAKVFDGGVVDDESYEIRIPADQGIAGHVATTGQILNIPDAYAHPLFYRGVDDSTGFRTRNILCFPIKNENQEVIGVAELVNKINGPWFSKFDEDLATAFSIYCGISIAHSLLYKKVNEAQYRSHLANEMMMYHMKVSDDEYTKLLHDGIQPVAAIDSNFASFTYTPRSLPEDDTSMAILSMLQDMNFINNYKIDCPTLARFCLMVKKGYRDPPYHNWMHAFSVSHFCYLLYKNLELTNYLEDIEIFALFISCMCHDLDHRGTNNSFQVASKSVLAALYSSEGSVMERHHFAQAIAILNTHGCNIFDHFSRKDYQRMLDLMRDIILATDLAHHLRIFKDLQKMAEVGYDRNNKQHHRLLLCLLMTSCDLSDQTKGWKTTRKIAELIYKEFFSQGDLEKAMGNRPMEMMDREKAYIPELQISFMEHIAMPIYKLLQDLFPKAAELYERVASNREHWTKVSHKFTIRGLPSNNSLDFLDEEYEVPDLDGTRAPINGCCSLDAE", "assay": "Selective inhibitory activity assay, PDE2A", "assay_type": "biochemical", "settings": "read-out: Inhibition rate (%) of PDE2A"}, "[7]": {"molecular_target": "PDE3B (Homo sapiens, UniProt Q13370)", "sequence (Q13370 whole entry, species assumed)": "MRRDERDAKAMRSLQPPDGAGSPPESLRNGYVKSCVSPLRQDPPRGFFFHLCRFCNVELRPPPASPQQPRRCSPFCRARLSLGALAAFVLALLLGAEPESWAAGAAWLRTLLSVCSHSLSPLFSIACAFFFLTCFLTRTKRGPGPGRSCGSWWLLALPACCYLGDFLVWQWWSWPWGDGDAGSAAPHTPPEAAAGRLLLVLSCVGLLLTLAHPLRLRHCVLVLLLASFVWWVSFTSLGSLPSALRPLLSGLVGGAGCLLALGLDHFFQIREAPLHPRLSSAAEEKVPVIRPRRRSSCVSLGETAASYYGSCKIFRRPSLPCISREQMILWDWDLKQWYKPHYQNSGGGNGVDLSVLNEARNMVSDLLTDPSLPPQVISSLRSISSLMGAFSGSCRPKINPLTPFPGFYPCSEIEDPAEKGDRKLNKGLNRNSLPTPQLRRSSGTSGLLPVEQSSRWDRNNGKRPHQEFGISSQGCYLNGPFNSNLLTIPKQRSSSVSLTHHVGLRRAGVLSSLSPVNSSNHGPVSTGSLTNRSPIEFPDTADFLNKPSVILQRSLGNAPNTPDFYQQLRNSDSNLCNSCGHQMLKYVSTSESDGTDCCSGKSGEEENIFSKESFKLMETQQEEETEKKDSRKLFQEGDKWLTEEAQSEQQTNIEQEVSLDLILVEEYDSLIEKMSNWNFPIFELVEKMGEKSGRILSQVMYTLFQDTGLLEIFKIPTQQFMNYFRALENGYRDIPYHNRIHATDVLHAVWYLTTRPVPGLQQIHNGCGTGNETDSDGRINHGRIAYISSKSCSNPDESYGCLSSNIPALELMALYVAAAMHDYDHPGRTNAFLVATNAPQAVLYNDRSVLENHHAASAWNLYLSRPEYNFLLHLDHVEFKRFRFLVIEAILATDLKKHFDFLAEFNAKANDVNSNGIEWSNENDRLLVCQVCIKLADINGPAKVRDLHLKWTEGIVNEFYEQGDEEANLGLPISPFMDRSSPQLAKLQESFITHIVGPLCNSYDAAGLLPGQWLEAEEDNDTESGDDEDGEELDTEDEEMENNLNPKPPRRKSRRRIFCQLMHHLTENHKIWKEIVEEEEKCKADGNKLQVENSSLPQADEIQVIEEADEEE", "assay": "Selective inhibitory activity assay, PDE3B", "assay_type": "biochemical", "settings": "read-out: Inhibition rate (%) of PDE3B"}, "[8]": {"molecular_target": "PDE5A1 (Homo sapiens, UniProt O76074)", "assay": "Selective inhibitory activity assay, PDE5A1", "assay_type": "biochemical", "settings": "read-out: Inhibition rate (%) of PDE5A1"}, "[9]": {"molecular_target": "PDE7A (Homo sapiens, UniProt Q13946)", "sequence (Q13946 whole entry, species assumed)": "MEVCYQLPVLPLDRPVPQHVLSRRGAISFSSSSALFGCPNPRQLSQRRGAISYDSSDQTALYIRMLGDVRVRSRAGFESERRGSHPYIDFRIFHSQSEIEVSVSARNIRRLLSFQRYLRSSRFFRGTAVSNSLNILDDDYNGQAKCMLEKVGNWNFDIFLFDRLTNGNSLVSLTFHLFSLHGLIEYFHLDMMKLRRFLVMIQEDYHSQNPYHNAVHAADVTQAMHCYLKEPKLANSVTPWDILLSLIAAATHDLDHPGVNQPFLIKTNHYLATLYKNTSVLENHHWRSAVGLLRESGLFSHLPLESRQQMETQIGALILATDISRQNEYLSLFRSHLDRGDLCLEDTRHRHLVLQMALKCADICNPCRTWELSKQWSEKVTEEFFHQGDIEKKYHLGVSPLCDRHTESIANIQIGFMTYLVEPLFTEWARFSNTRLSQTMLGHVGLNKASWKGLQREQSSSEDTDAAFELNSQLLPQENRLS", "assay": "Selective inhibitory activity assay, PDE7A", "assay_type": "biochemical", "settings": "read-out: Inhibition rate (%) of PDE7A"}, "[10]": {"molecular_target": "PDE10A1 (Homo sapiens, UniProt Q9Y233)", "sequence (Q9Y233 1-779 isoform Q9Y233-1, species assumed)": "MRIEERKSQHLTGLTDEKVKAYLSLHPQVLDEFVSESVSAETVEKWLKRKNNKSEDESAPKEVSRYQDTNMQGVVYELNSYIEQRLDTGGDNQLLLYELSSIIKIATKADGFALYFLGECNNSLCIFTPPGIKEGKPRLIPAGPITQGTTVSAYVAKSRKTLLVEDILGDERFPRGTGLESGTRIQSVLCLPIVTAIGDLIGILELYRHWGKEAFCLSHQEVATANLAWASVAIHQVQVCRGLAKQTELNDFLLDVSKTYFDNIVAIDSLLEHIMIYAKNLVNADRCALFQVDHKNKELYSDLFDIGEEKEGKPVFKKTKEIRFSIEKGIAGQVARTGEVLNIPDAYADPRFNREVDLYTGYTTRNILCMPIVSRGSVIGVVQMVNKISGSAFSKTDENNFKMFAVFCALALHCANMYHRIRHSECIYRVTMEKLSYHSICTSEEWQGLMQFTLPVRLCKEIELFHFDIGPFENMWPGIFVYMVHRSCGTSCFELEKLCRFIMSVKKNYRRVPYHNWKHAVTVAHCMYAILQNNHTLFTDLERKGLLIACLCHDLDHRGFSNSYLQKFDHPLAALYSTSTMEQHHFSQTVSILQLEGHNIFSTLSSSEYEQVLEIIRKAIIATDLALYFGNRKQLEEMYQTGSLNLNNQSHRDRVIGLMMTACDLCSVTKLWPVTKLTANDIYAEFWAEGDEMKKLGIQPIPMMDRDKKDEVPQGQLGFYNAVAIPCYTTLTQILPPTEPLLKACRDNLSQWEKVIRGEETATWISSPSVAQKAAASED", "assay": "Selective inhibitory activity assay, PDE10A1", "assay_type": "biochemical", "settings": "read-out: Inhibition rate (%) of PDE10A1"}, "[11]": {"system": "TNF-α", "assay": "Inhibition of TNF-α induced in human peripheral blood mononuclear cells", "assay_type": "cell-based", "settings": "human PBMC, stimulus LPS; read-out: IC50 (nM), cytokine TNF-α"}, "[12]": {"system": "IL-2", "assay": "Inhibition of IL-2 induced in human peripheral blood mononuclear cells", "assay_type": "cell-based", "settings": "human PBMC, stimulus SEB; read-out: IC50 (nM), cytokine IL-2", "procedure": "8. Inhibitory assay of inflammatory factors TNF-α, IL-2, INF-γ\nDetermination of TNF-α, IL-2 and INF-γ induced by LPS/SEB in human peripheral blood mononuclear cells:\n1. The purchased PBMC frozen cells were thawed at 37° C., transferred to RMPI1640 medium, and incubated overnight at 37° C. in an incubator containing 5% of CO2.\n2. The next day, the cells were planked at 2×10^5 cells/well, with 100 μL per well.\n4. LPS stimulus was added to each well at a final concentration of 10 ng/ml.\n5. Incubation was carried out overnight at […] in an incubator containing 5% of CO2.\n6. On the third day, the cell culture supernatant was collected, and cytokine assay was performed using an MSD method."}, "[13]": {"system": "INF-γ", "assay": "Inhibition of INF-γ induced in human peripheral blood mononuclear cells", "assay_type": "cell-based"}}, "note": "Like-named read-outs stand apart in the source and are kept apart here.", "data": [{"smiles": "CCCCCc1ccc(NC(C)=O)c2c1C(=O)N([C@H](CS(C)(=O)=O)c1ccc(OC)c(OCC)c1)C2=O", "note": "[Example 9, (S)-2-[1-(3-ethoxy-4-methoxyphenyl)-2-alkylsulfonylethyl]-4-acetamido-7-pentyl isoindoline-1,3-diketone]", "values": [{"measurement": "IC50", "setting": "[1]", "result": "< 5", "unit": "nM"}, {"measurement": "IC50", "setting": "[2]", "result": "< 100", "unit": "nM"}, {"measurement": "IC50", "setting": "[3]", "result": "< 100", "unit": "nM"}, {"measurement": "IC50", "setting": "[4]", "result": "< 200", "unit": "nM"}, {"measurement": "inhibition at 1 µM", "setting": "[5]; 1 μM", "result": 0.49, "unit": "%"}, {"measurement": "inhibition at 10 µM", "setting": "[5]; 10 μM", "result": 30.6, "unit": "%"}, {"measurement": "inhibition at 1 µM", "setting": "[6]; 1 μM", "result": 5.83, "unit": "%"}, {"measurement": "inhibition at 10 µM", "setting": "[6]; 10 μM", "result": 12.2, "unit": "%"}, {"measurement": "inhibition at 1 µM", "setting": "[7]; 1 μM", "result": 5.44, "unit": "%"}, {"measurement": "inhibition at 10 µM", "setting": "[7]; 10 μM", "result": 0.81, "unit": "%"}, {"measurement": "inhibition at 1 µM", "setting": "[8]; 1 μM", "result": 1.99, "unit": "%"}, {"measurement": "inhibition at 10 µM", "setting": "[8]; 10 μM", "result": 5.74, "unit": "%"}, {"measurement": "inhibition at 1 µM", "setting": "[9]; 1 μM", "result": 20.8, "unit": "%"}, {"measurement": "inhibition at 10 µM", "setting": "[9]; 10 μM", "result": 44.5, "unit": "%"}, {"measurement": "inhibition at 1 µM", "setting": "[10]; 1 μM", "result": 0, "unit": "%"}, {"measurement": "inhibition at 10 µM", "setting": "[10]; 10 μM", "result": 10.1, "unit": "%"}, {"measurement": "IC50", "setting": "[11]", "result": 0.82, "unit": "nM"}, {"measurement": "IC50", "setting": "[12]", "result": 0.44, "unit": "nM"}, {"measurement": "IC50", "setting": "[13]; Homo sapiens, PBMC, read-out: IC50 (nM), cytokine INF-r, human PBMC, stimulus SEB", "result": 1.82, "unit": "nM"}, {"measurement": "IC50", "setting": "[13]; human PBMC, stimulus LPS, read-out: IC50 (nM), cytokine INF-r", "result": 0.43, "unit": "nM"}]}]}
